From ChEMBL document CHEMBL1201862, “PubChem BioAssay data set” (2004)
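Dose response: 5 concentrations. Exposure: 48 h. Format: 96-well plates. Endpoint: linear interpolation; highest concentration if not reached. GI50 is the concentration that inhibits growth by half.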 Activity calls are given as the source filed them. No stated cut-off is given here; in the data, active = GI50 up to about 1.1 µM and inactive = higher.

Key:
Assay in all cases: inhibition of tumour cell growth, NCI panel, 48 h
[1] = tested on: A498
[2] = tested on: A549
[3] = tested on: ACHN
[4] = tested on: HOP-62
[5] = tested on: KM-20L2
[6] = tested on: MDA-MB-231
[7] = tested on: MDA-MB-435
[8] = tested on: NCI-H23
[9] = tested on: OVCAR-3
[10] = tested on: OVCAR-4
[11] = tested on: RXF 393
[12] = tested on: SF-295
[13] = tested on: SK-MEL-5
[14] = tested on: SK-OV-3
[15] = tested on: SN12C
[16] = tested on: SNB-75
[17] = tested on: TK-10
[18] = tested on: U-251
[19] = tested on: UO-31
[20] = tested on: NCI/ADR-RES

| SMILES | GI50 [1] | GI50 [2] | GI50 [3] | GI50 [4] | GI50 [5] | GI50 [6] | GI50 [7] | GI50 [8] | GI50 [9] | GI50 [10] | GI50 [11] | GI50 [12] | GI50 [13] | GI50 [14] | GI50 [15] | GI50 [16] | GI50 [17] | GI50 [18] | GI50 [19] | GI50 [20] |
| --- | --- | --- | --- | --- | --- | --- | --- | --- | --- | --- | --- | --- | --- | --- | --- | --- | --- | --- | --- | --- |
| CC1OC(OC2C[C@](O)(C(=O)CF)Cc3c(O)c4c(c(O)c32)C(=O)c2ccccc2C4=O)CC(N)C1O (stereo partly drawn) | 0.233 µM (active) | < 0.01 µM (active) | < 0.01 µM (active) | < 0.01 µM (active) | 0.0574 µM (active) | 0.043 µM (active) | 0.0746 µM (active) | < 0.01 µM (active) | 0.233 µM (active) | 0.152 µM (active) | 0.0637 µM (active) | < 0.01 µM (active) | < 0.0113 µM (active) | 0.0194 µM (active) | < 0.01 µM (active) | 0.0161 µM (active) | 0.1 µM (active) | < 0.013 µM (active) | 0.0392 µM (active) |  |
| CCOP(=O)(OCC)C(C(=O)OC)C(=O)C(=O)Nc1cccc([N+](=O)[O-])c1 (stereo not drawn) | > 100 µM (inactive) | > 100 µM (inactive) | > 100 µM (inactive) | > 100 µM (inactive) | > 100 µM (inactive) |  |  | > 100 µM (inactive) | > 100 µM (inactive) | > 100 µM (inactive) | > 100 µM (inactive) | > 100 µM (inactive) | > 100 µM (inactive) | > 100 µM (inactive) | > 100 µM (inactive) | > 100 µM (inactive) | > 100 µM (inactive) | > 100 µM (inactive) | > 100 µM (inactive) |  |
| Clc1ccc2ns[s+]c2c1 | > 100 µM (inactive) | 5.24 µM (inactive) | 0.449 µM (active) | 4.32 µM (inactive) | 0.317 µM (active) | 25.3 µM (inactive) | 0.334 µM (active) | 11.7 µM (inactive) | 31.6 µM (inactive) | 22.4 µM (inactive) | > 100 µM (inactive) | 0.853 µM (active) | 15.5 µM (inactive) | > 100 µM (inactive) | 19.4 µM (inactive) | > 79.3 µM (inactive) | > 25.6 µM (inactive) | 18.3 µM (inactive) | 6.44 µM (inactive) |  |
| C=CC/C=C/Cc1csc(C(C)(C)C(O)C/C=C/C(=C)CCNC(=O)OC)n1 (stereo not drawn) | > 60.5 µM (inactive) | 41.4 µM (inactive) | 49.7 µM (inactive) | > 100 µM (inactive) | 51.2 µM (inactive) |  | 49.7 µM (inactive) | 0.245 µM (active) | 24.8 µM (inactive) | > 57.3 µM (inactive) | > 63.4 µM (inactive) | 1.28 µM (inactive) | 1.17 µM (inactive) | > 85.3 µM (inactive) | > 100 µM (inactive) | 43 µM (inactive) | > 100 µM (inactive) | 74.5 µM (inactive) | > 71.3 µM (inactive) | 75.7 µM (inactive) |
| Cn1c(=O)c2/c(n(C)c1=O)=N\C=c1\c(=O)n(C)c(=O)n(C)\c1=N\C=2 | > 100 µM (inactive) | > 100 µM (inactive) | > 100 µM (inactive) | > 100 µM (inactive) | > 100 µM (inactive) |  |  | > 100 µM (inactive) | > 100 µM (inactive) | > 100 µM (inactive) | > 100 µM (inactive) | > 100 µM (inactive) | > 100 µM (inactive) |  | > 100 µM (inactive) | 39.4 µM (inactive) | > 100 µM (inactive) | > 100 µM (inactive) | > 100 µM (inactive) |  |
| Cc1cccc(C)c1NC(=O)/C(Cl)=C(/Cl)C(=O)O | 33.5 µM (inactive) | 20.7 µM (inactive) | 15.4 µM (inactive) | > 62.2 µM (inactive) | 6.92 µM (inactive) | 21.3 µM (inactive) | 21.9 µM (inactive) | 19.1 µM (inactive) | 20.9 µM (inactive) | 18.5 µM (inactive) | 18.8 µM (inactive) | 29.2 µM (inactive) | 19.9 µM (inactive) | 21.8 µM (inactive) | 18.7 µM (inactive) | 20.2 µM (inactive) | 14.7 µM (inactive) | 21.1 µM (inactive) | 14.8 µM (inactive) |  |
| Nc1ccn(CCNCCn2cnc3nc(N)[nH]c(=O)c32)c(=O)n1 | > 100 µM (inactive) | > 100 µM (inactive) | > 100 µM (inactive) | > 100 µM (inactive) | > 100 µM (inactive) |  |  | > 100 µM (inactive) | > 100 µM (inactive) | > 100 µM (inactive) | > 100 µM (inactive) | > 100 µM (inactive) |  |  | > 100 µM (inactive) |  | > 100 µM (inactive) | > 100 µM (inactive) | > 100 µM (inactive) |  |
| C[n+]1c2n(c3nc(N)[nH]c(=O)c31)C1OC(C2)C(O)C1O (stereo not drawn) | > 100 µM (inactive) | > 100 µM (inactive) | > 100 µM (inactive) | > 100 µM (inactive) | > 100 µM (inactive) |  |  | > 100 µM (inactive) | > 100 µM (inactive) | > 100 µM (inactive) | > 100 µM (inactive) | > 100 µM (inactive) | > 100 µM (inactive) | > 100 µM (inactive) | > 100 µM (inactive) | > 100 µM (inactive) | > 100 µM (inactive) | > 100 µM (inactive) | > 100 µM (inactive) |  |
| CCCCN(CCCC)CC(C(=O)Nc1ccc([N+](=O)[O-])cc1[N+](=O)[O-])/C(C)=N\NC(=O)c1ccncc1 (stereo not drawn) | > 100 µM (inactive) | > 100 µM (inactive) | > 100 µM (inactive) | > 100 µM (inactive) | > 100 µM (inactive) |  |  | > 100 µM (inactive) | > 100 µM (inactive) | > 100 µM (inactive) | > 100 µM (inactive) | > 100 µM (inactive) | > 100 µM (inactive) | > 100 µM (inactive) | > 100 µM (inactive) | 76.6 µM (inactive) | > 100 µM (inactive) | > 100 µM (inactive) | > 100 µM (inactive) |  |
| CN(C)c1ccc(C(=C(c2ccc(N(C)C)cc2)c2ccc(N(C)C)cc2)c2ccc(N(C)C)cc2)cc1 | 18.6 µM (inactive) | 16.3 µM (inactive) | 11.5 µM (inactive) | 39.5 µM (inactive) | 16.9 µM (inactive) |  |  | 17 µM (inactive) | 0.31 µM (active) | 20.1 µM (inactive) | 11.7 µM (inactive) | 13.9 µM (inactive) | 16.3 µM (inactive) | 20.8 µM (inactive) | 16.2 µM (inactive) | 13.5 µM (inactive) | 16 µM (inactive) | 13.9 µM (inactive) | 17.4 µM (inactive) |  |
| O=C(CCc1nnc(S)[nH]1)Nc1cc(Cl)c(Cl)cc1Cl | > 100 µM (inactive) | > 100 µM (inactive) | > 100 µM (inactive) | > 100 µM (inactive) | > 100 µM (inactive) |  |  | > 100 µM (inactive) | > 100 µM (inactive) | > 100 µM (inactive) | > 100 µM (inactive) | > 100 µM (inactive) | > 100 µM (inactive) | > 100 µM (inactive) | > 100 µM (inactive) | 25.4 µM (inactive) | > 100 µM (inactive) | > 100 µM (inactive) | > 100 µM (inactive) |  |
| Cc1c(Cl)ccc2c1NC(=O)C2(O)CC(=O)c1ccc2ccccc2c1 (stereo not drawn) | > 100 µM (inactive) | 53.3 µM (inactive) | 58.9 µM (inactive) | > 100 µM (inactive) | 69 µM (inactive) |  |  | 28.2 µM (inactive) | 33.4 µM (inactive) | 46.9 µM (inactive) | 16 µM (inactive) | 88.3 µM (inactive) | > 10 µM (inactive) | > 100 µM (inactive) | 76.7 µM (inactive) | 14.2 µM (inactive) | > 100 µM (inactive) | 71.6 µM (inactive) | 22.4 µM (inactive) |  |
| Oc1ccc2c(O)cc(-c3ccccc3)nc2c1 | 32.1 µM (inactive) | 23.1 µM (inactive) | 21.4 µM (inactive) | 28.2 µM (inactive) | 19.9 µM (inactive) |  |  | 36.4 µM (inactive) |  | 26 µM (inactive) | 6.22 µM (inactive) | 75 µM (inactive) | 30.1 µM (inactive) | 28.4 µM (inactive) | 24.3 µM (inactive) | 22.1 µM (inactive) | 40.7 µM (inactive) | 31.3 µM (inactive) | 19.3 µM (inactive) |  |
| C=C1C(=O)OC2CC3(C)C=CC(=O)C(=C)C3CC12 (stereo not drawn) | 7.46 µM (inactive) | 5.62 µM (inactive) | 1.72 µM (inactive) | 14.7 µM (inactive) | 2.28 µM (inactive) |  |  | 1.69 µM (inactive) | 2.32 µM (inactive) | 2.18 µM (inactive) | 2.03 µM (inactive) | 13.9 µM (inactive) | 1.72 µM (inactive) | 20.8 µM (inactive) | 1.69 µM (inactive) | 3.73 µM (inactive) | 2.15 µM (inactive) | 3.79 µM (inactive) | 1.75 µM (inactive) |  |
| C=CC(=O)N1C/C(=C\c2ccc(Cl)c(Cl)c2)C(=O)/C(=C/c2ccc(Cl)c(Cl)c2)C1 | 0.63 µM (active) |  | 0.169 µM (active) | 0.264 µM (active) | 0.216 µM (active) |  |  | 0.2 µM (active) | 0.0865 µM (active) | 0.0318 µM (active) | 0.148 µM (active) | 0.233 µM (active) | 0.478 µM (active) | 0.378 µM (active) | 0.155 µM (active) | 0.187 µM (active) | 0.501 µM (active) | 0.0226 µM (active) | 0.207 µM (active) |  |
| CC1(C)OCN(c2ccc(S(N)(=O)=O)cc2)Cn2c1nc1ccccc12 | > 100 µM (inactive) | > 100 µM (inactive) | > 100 µM (inactive) | > 100 µM (inactive) | > 100 µM (inactive) |  |  | > 100 µM (inactive) | > 100 µM (inactive) | > 100 µM (inactive) | > 100 µM (inactive) | > 100 µM (inactive) |  | > 100 µM (inactive) | > 100 µM (inactive) | > 100 µM (inactive) | > 100 µM (inactive) | > 100 µM (inactive) | > 100 µM (inactive) |  |
